A short description of data set [1]: Pharmacokinetic assay in rats. It counts as in vivo, SD rat. The following applies: male SD rats, i.g., 3 mg/kg; for AUC(0-t) / Cmax / MRT / Tmax: rat, plasma, po. As for the experimental part: (4) Pharmacokinetic Assay in Rats Assay objective: after administration of test compounds to rats, the pharmacokinetic behavior of the compounds disclosed herein was investigated. Assay Animals: Species and strains: SD rat grade: SPF grade Gender and quantity: male, 6 Weight range: 180 to 220 g (the actual weight range was from 187 to 197 g) Assay Procedure: Before blood samples were collected, 20 μL of 2 M sodium fluoride solution (esterase inhibitor) was previously added to an EDTA-K2 anticoagulant tube, dried in an 80° C. oven, and placed in a 4° C. refrigerator. Rats (male, weighing 187 to 197 g) were randomly divided into 2 groups, and were fasted overnight in the afternoon before the experiment but were allowed to drink water freely. Food was given 4 hours after the administration. […] About 100-200 μL of blood was taken from the orbital vein of rats at 15 min, 30 min, 1, 2, 3, 5, 8 and 10 h after administration, placed in a 0.5 mL Eppendorf tube with EDTA-K2 anticoagulant and mixed immediately. After anticoagulation, the tube was gently inverted 5-6 times as quickly as possible. After the blood was taken, it was placed in an ice box, and then within 30 min, the blood sample was centrifuged for 10 min at 4000 rpm and 4° C. to separate the plasma. Immediately after collection of all plasma, it was stored at −20° C. The concentration of the drug in plasma at each time point was determined after sample collection at all time points. Based on the data of the average concentration of the drug in plasma versus time after administration obtained as described above, pharmacokinetics-related parameters of male SD rats after the i.g. administration of test compounds (3 mg/kg) were calculated using the Winnonin software according to non-compartment statistical moment theory.

Data set [2] deals with Ba/F3 EML-ALK cells. The data set is described as follows: Cytotoxicity assay (cell viability, CellTiter-Glo), Ba/F3 EML-ALK. The following applies: Mus musculus, BaF3, 72 h, read-out: Ba/F3 EML-ALK IC50. It counts as cell-based. (Cellular ATP, detected with luciferase, serves as a proxy for viable cell number.)
Data set [3] can be described thus: Liver microsomal metabolism assay, rat. It counts as in vitro ADME. The following applies: SD, pH 7.4, rat liver microsomes 0.5 mg/mL, compound 1 μM, 37° C.; for microsomal CLint at 1 μM: read-out: Rat liver microsome assay CLint; for half-life at 1 μM: read-out: Rat liver microsome assay t1/2. Here is the method:
(§1) (3) Liver Microsomal Metabolism Assay
(§2) […]; Coenzyme (NADPH/NADH): 1 mM, Sigma Life Science; Magnesium chloride: 5 mM, 100 mM phosphate buffer (pH 7.4).
(§3) Preparation of stock solutions: Powder of the compounds were accurately weighed and dissolved in DMSO to 5 mM.
(§4) Preparation of phosphate buffer (100 mM, pH7.4): A pre-prepared 0.5M potassium dihydrogen phosphate (150 mL) was mixed with 0.5M dibasic potassium phosphate (700 mL). The pH of the mixture was adjusted to 7.4 with 0.5M dibasic potassium phosphate solution. The mixture was diluted 5-fold with ultrapure water before use, and magnesium chloride was added to obtain a phosphate buffer (100 mM) containing 100 mM potassium phosphate, 3.3 mM magnesium chloride, pH 7.4.
(§5) A NADPH regeneration system solution (containing 6.5 mM NADP, 16.5 mM G-6-P, 3 U/mL G-6-P D, 3.3 mM magnesium chloride) was prepared and placed on wet ice prior to use.
(§6) Incubation of the samples: The stock solutions of the respective compounds were respectively diluted to 0.25 mM with an aqueous solution containing 70% acetonitrile, and used as a working solution, ready for use. 398 μL of the dilution of human liver microsomes or rat liver microsomes were added to 96-well incubation plates (N=2), respectively, and 2 μL of 0.25 mM working solution was added and mixed.
(§7) Metabolic stability assay: 300 μL of pre-chilled stop solution was added to each well of 96-well deep well plates and placed on ice as stop plates. The 96-well incubation plates and NADPH regeneration system were placed in a 37° C. water bath box, shaken at 100 rpm and pre-incubated for 5 min. 80 μL of incubation solution was taken out from each well of the incubation plates and added to the stop plates, mixed, and replenished with 20 μL of NADPH regeneration system solution as a 0-min sample. 80 μL of NADPH regeneration system solution was added to each well of the incubation plates to start the reaction and start counting. […] Separately, 100 μL of the reaction solutions was taken at 10, 30, and 90 min reaction, respectively, added to stop plates, and vortexed for 3 minutes to terminate the reaction. The stop plates were centrifuged at 5000×g at 4° C. for 10 min. 100 μL of the supernatant was added to a 96-well plate to which 100 μL of distilled water was previously added, mixed, and analyzed by LC-MS/MS.
(§8) Data analysis: The peak areas of the corresponding compounds and internal standard were detected by LC-MS/MS system, and the ratio of the peak area of the compounds to the internal standard was calculated.
(§9) The metabolic stability of the compounds in human and rat liver microsomes was evaluated by simultaneously testing and comparing the compounds disclosed herein and the non-deuterated compound. […]
Background: Liver microsomes are a subcellular fraction often used to study metabolism.

For data set [4], the system named is KM12 (TPM3-TRKA) cells. In words: cells. The following applies: Homo sapiens, KM12, 72 h, read-out: KM12 IC50. As for the experimental part:
(§10) Assay methods: 1. Preparation of cell plates: Ba/F3, and Ba/F3 Bcr-Abl T315I cells were separately seeded in 96-well plates, and 8 ng/ml IL-3 was added to Ba/F3 cells. The cell plates were placed in a carbon dioxide incubator for culture overnight. 2. […] 3. Treatment of cells with compounds: The compounds were transferred to cell plates at a starting concentration of 10 μM. The cell plates were incubated in a carbon dioxide incubator for 3 days. 4. Detection: CellTiter-Glo reagent was added to the cell plates and incubated for 30 minutes at room temperature to stabilize the luminescence signal. Readings were performed using a PerkinElmer Envision multi-label analyzer.

The test system of data set [5] is HCC-78 (SLC34A2-ROS1) cells. The data set is described as follows: cells. The following applies: Homo sapiens, HCC78, 72 h, read-out: HCC-78 IC50. Here is the method: as §10
Data set [6] can be described thus: Liver microsomal metabolism assay, human. It counts as in vitro ADME. The following applies: pH 7.4, human liver microsomes 0.5 mg/mL, compound 1 μM, 37° C.; for microsomal CLint at 1 μM: read-out: Human liver microsome assay CLint; for half-life at 1 μM: read-out: Human liver microsome assay t1/2. Here is the method: as §1, §2, §3, §4, §5, §6, §7, §8, §9

The subject of data set [7] is Ba/F3 EML-ALK^L1196M cells. In words: Cytotoxicity assay (cell viability, CellTiter-Glo), Ba/F3 EML-ALK L1196M. The following applies: Mus musculus, BaF3, 72 h, read-out: Ba/F3 EML-ALK^L1196M IC50. It counts as cell-based.

pIC50: −log10 of the molar value.

In data set [1], `[2H]C([2H])([2H])N1CCN(c2ccc(C(=O)Nc3n[nH]c4ccc(Cc5cc(F)cc(F)c5)cc34)c(NC3CCOCC3)c2)CC1` [Compound T-1, N-(5-(3,5-difluorobenzyl)-1H-indazol-3-yl)-4-(4-(methyl-d3)piperazin-1-yl)-2-((tetrahydro-2H-pyran-4-yl)amino)benzamide] had a Cl_pred of 9.29 L/h/kg, an F of 7.43%, an AUC(0-t) of 1070 ng·h/mL and a Cmax of 145 ng/mL. In data set [1], the mean residence time (MRT) is 5.31 h and the Tmax was found to be 3.33 h. In addition, the pIC50 in data set [2] is 6.82 to 7.30. Also, in data set [3], the microsomal CLint at 1 μM was 21.3 µL/min/mg and the half-life at 1 μM worked out at 65.2 min. Besides, in data set [4], the pIC50 is 8.00 to 9.00. Also, in data set [5], the pIC50 was 7.30 to 8.00. Also, in data set [6], the microsomal CLint at 1 μM came out at 34.7 µL/min/mg and the half-life at 1 μM came out at 39.9 min.

In the case of `[2H]C1([2H])N(C)C([2H])([2H])C([2H])([2H])N(c2ccc(C(=O)Nc3n[nH]c4ccc(Cc5cc(F)cc(F)c5)cc34)c(NC3CCOCC3)c2)C1([2H])[2H]` [Compound T-2, N-(5-(3,5-difluorobenzyl)-1H-indazol-3-yl)-4-(4-methylpiperazin-1-yl-2,2,3,3,5,5,6,6-d8)-2-((tetrahydro-2H-pyran-4-yl)amino)benzamide], the pIC50 in data set [2] is 6.82 to 7.30; in data set [4] it was 8.00 to 9.00; in data set [5], 7.30 to 8.00. Moreover, the microsomal CLint at 1 μM in data set [3] turned out to be 19.5 µL/min/mg; in data set [6], 31.3 µL/min/mg. Also, the half-life at 1 μM in data set [3] worked out at 71.2 min; in data set [6], 44.3 min.

For the molecule `CN1CCN(c2ccc(C(=O)Nc3n[nH]c4ccc(Cc5cc(F)cc(F)c5)cc34)c(NC3CCOCC3)c2)CC1` [Entrectinib, N-(5-(3,5-difluorobenzyl)-1H-indazol-3-yl)-4-(4-methylpiperazin-1-yl)-2-((tetrahydro-2H-pyran-4-yl)amino)benzamide, reference compound], in data set [1], the Cl_pred was 6.83 L/h/kg, the F worked out at 9.23%, the area under the curve AUC(0-t) came out at 1460 ng·h/mL and the maximum concentration (Cmax) amounted to 236 ng/mL. In data set [1], the mean residence time (MRT) stood at 4.24 h and the time of peak concentration (Tmax) amounted to 2.17 h. Further, the pIC50 in data set [2] was 6.82 to 7.30. Also, the pIC50 in data set [7] is under 6.70. In data set [3], the microsomal CLint at 1 μM was 32.9 µL/min/mg and the half-life at 1 μM is 42.2 min. In data set [4], the pIC50 is 8.00 to 9.00. The pIC50 in data set [5] was 7.30 to 8.00. In data set [6], the microsomal CLint at 1 μM turned out to be 48.1 µL/min/mg and the half-life at 1 μM was determined as 28.8 min.

One may read the AUC(0-t) as the area under the concentration-time curve up to a stated or last time point. Read a high AUC(0-t) as more exposure. One may read the Cmax as the maximum level reached in the sampled fluid or tissue. One may read the MRT as a mean duration of stay, worked out from the concentration-time curve. A word on the Tmax: it is the time at which the peak concentration occurs.

(Values after US11267806B2, “Indazole compound for use in inhibiting kinase activity, composition and application thereof” (Shenzhen TargetRx, Inc., priority 2017, dated 2022).)
